Measured values: article PMC12529149, “Chemical and Antiplasmodial Investigations on Carapa-Derived Gedunin Derivatives and Semisynthetic 6- and 7‑Substituted Gedunin Analogues from the Brazilian Amazon” (ACS Omega, 2025)
Several values for one entry are separate records, joined by “and”; a condition that tells them apart may be missing. Equal entries are not always repeated. Structures can show the parent of a compound that is named as a salt. Where two headings read alike, the source gives them in different places.

How the values were obtained:
P. falciparum = test system: P. falciparum; set-up: method as in literature (number not shown); settings: strain not stated, ref literature (number not shown), cited from earlier work
P. falciparum W2 strain = test system: P. falciparum W2 strain; set-up: method as in literature (numbers not shown); settings: ref literature (numbers not shown); cited from earlier work
P. falciparum D6 strain = test system: P. falciparum D6 strain; set-up: method as in literature (numbers not shown); settings: ref literature (numbers not shown); cited from earlier work
[1] = test system: K1 strain of Plasmodium falciparum; assay: In vitro susceptibility assay (microtest), P. falciparum K1 growth inhibition; format: cell-based
Experimental: In vitro culture of the K1 strain of P. falciparum (MRA-159, MR4, ATCC, Manassas, Virginia, USA) proceeded following an established method with modifications. Briefly, this method involved the growth of parasites in human type A+ red blood cells and RPMI 1640 medium supplemented with 10% type A+ human plasma at 37 °C under an atmosphere of 5% O2, 5% CO2, and 90% N2.
As initial condition for the susceptibility assay, cultures were synchronized by treatment with 5% D-sorbitol, which provided young trophozoites (ring stages). Performance of the microtest followed a previously described procedure with modifications. Compounds were dissolved in DMSO with the aid of an ultrasound bath to provided stock solutions. […] These diluted samples were evaluated in duplicate in a 96-well test plate. A suspension of parasitized red blood cells (pRBCs) at 2% hematocrit and 1% parasitemia was added to each well. Microplate incubation proceeded for 48 h at 37 °C under the same atmosphere used for parasite culture in two independent experiments conducted on different days. Control wells contained chloroquine (0.003–2.5 μg/mL) and quinine (0.003–2.5 μg/mL). Six (6) control (blank) wells were prepared with pRBCs suspension. Six cosolvent control wells were prepared with 1% DMSO and pRBCs suspension. An average of these 12 controls defined drug-free (untreated) growth. After the incubation period, thin blood smears of the contents of each well were prepared on microscope slides. Optical microscopy was used to analyze the blood smears and establish the parasitemia of each well. Interpolation of the nonlinear curve using GraphPad Prism permitted the calculation of estimates of the sample concentrations able to inhibit 50% of parasite growth (IC50) compared to drug-free controls.

MRC-5 human fibroblasts = assay: Cytotoxicity/cell viability assay (Alamar blue); format: cell-based; settings: read-out: fibroblasts IC50
Experimental: Medical Research Council cell strain 5 (MRC-5) human fetal fibroblasts were cultivated in Dulbecco′s modified Eagle’s medium (DMEM) supplemented with 10% bovine fetal serum and 1% antibiotic at 37 °C under an atmosphere of 5% CO2. Cell viability assessment relied on the Alamar blue method. […] Doxorubicin at concentrations of 0.312, 0.625, 1.25, 2.50, 5.00, 10.0, and 20.0 μM was used as a positive control for cell death. The negative control wells received DMSO (sample diluent) at 0.1%. In preparation for the assay, this method involved plating 0.5 × 10^4 cells/well on 96 well test plates and incubating for 24 h under the same conditions used for cell culture. This initial 24 h period was necessary for cell adhesion. The assay consisted of triplicate addition of diluted samples and controls to wells followed by 48 h of incubation. For quantification of viable cells, 10 μL of 0.4% Alamar blue (Sigma-Aldrich)–which works out to an in-well concentration of 0.02%–were added to each well 3 h before the end of the treatment. Alamar blue was allowed to react for 3 h followed by quantification of the optical density (OD) of each well at an excitation wavelength of 465 nm and emission wavelength of 540 nm using an ELISA plate reader (DTX-800, Beckman Coulter). Comparison of individual sample viability OD to that of controls (blanks) afforded the cell viability. Interpolation of the nonlinear curve using GraphPad Prism software permitted the calculation of estimates of the sample IC50 values compared to drug-free controls.

[2] = test system: P. falciparum K1 strain vs MRC-5 human fibroblasts; assay: Selectivity index, IC50 (human fibroblasts) ÷ IC50 (P. falciparum); format: cell-based, Plasmodium falciparum
Excerpt: Calculation of the selectivity index (SI) using the following formula afforded the relative toxicity of each sample to human fibroblasts and to P. falciparum blood stages: SI = IC50 (human fibroblasts) ÷ IC50 (P. falciparum).

[3] = test system: variety of P. falciparum strains; settings: cited from earlier work
[4] = test system: mouse mammary carcinoma (FM3A) cell cultures; set-up: method as in literature (number not shown); settings: ref literature (number not shown); cited from earlier work
Plasmodium berghei = settings: oral, 50 mg/kg/day together with dillapiole 25 mg/kg/day (binary treatment), mice; ref literature (numbers not shown); cited from earlier work
[5] = set-up: method as in literature (number not shown); settings: low pH similar to mouse and human stomachs; ref literature (number not shown); cited from earlier work
[6] = test system: P. falciparum FCR3 strain; set-up: method as in literature (numbers not shown); settings: ref literature (numbers not shown); cited from earlier work
P. falciparum K1 strain = test system: P. falciparum K1 strain; set-up: method as in earlier work; settings: ref previous reports incl. authors' earlier work (numbers not shown); cited from earlier work
[7] = Plasmodium falciparum, K1, 48 h, read-out: P. falciparum IC50 (CI95), K1 strain, 48 h, CI95 in brackets
[8] = Plasmodium falciparum, K1, 48 h, K1 strain, 48 h, CI95 in brackets, read-out: P. falciparum IC50 (CI95)
[9] = MRC5, MRC-5, tested at 50 μg/mL for 48 h

| Molecule | selectivity index (SI) [2] | IC50 [1, 8] | IC50 (MRC-5 human fibroblasts; [9]) [µM] | further results |
| --- | --- | --- | --- | --- |
| CC(=O)O[C@@H]1C[C@H]2C(C)(C)C(=O)C=C[C@]2(C)[C@H]2CC[C@@]3(C)[C@H](c4ccoc4)OC(=O)[C@H]4O[C@]43[C@@]21C (single isomer, unassigned) [(−)-gedunin, reference compound] |  |  |  | IC50 (P. falciparum; 48 h, read-out: IC50 after 48 h): 1000 nM; IC50 (P. falciparum; 96 h, read-out: IC50 after 96 h): 300 nM; IC50 (P. falciparum W2 strain): 41 to 650 nM; IC50 (P. falciparum D6 strain): 81 to 630 nM |
| CCCC(=O)O[C@H]1C[C@H]2C(C)(C)C(=O)C=C[C@]2(C)[C@H]2CC[C@@]3(C)[C@H](c4ccoc4)OC(=O)[C@H]4O[C@]43[C@]12C [compound 7, 7-deacetyl-7-butanoyl-7-epi-gedunin] | >21 |  |  | IC50 [1, 7]: 2.4 µg/mL and 4.7 µM; IC50 (MRC-5 human fibroblasts; MRC5, 48 h): > 98 µM |
| CC1(C)C(=O)C=C[C@]2(C)[C@H]3CC[C@@]4(C)[C@H](c5ccoc5)OC(=O)[C@H]5O[C@]54[C@]3(C)C(=O)C[C@@H]12 [compound 1, 7-Deacetyl-7-oxogedunin] |  |  |  | IC50 ([3]; FCR3 and INDO strains, ref previous reports (numbers not shown), read-out: IC50): 2.5 to 7.5 µM; IC50 (P. falciparum W2 strain): > 20700 nM; IC50 (P. falciparum D6 strain): > 20700 nM; toxicity to FM3A cells [4]: toxic |
| C=C[C@H]1C[N@@]2CC[C@H]1C[C@H]2[C@H](O)c1ccnc2ccc(OC)cc12 [quinine hydrochloride, reference compound] |  | 0.14 µg/mL and 350 nM |  |  |
| 7-deacetyl-7α-methoxygedunin [reference compound] |  |  |  | IC50 (P. falciparum; read-out: IC50, P. falciparum in vitro): 1600 to 1700 nM; suppression of P. berghei vs untreated controls (Plasmodium berghei): 68–81%; stability at low pH [5]: good stability at low pH |
| CCCCC(=O)O[C@@H]1C[C@H]2C(C)(C)C(=O)C=C[C@]2(C)[C@H]2CC[C@@]3(C)[C@H](c4ccoc4)OC(=O)[C@H]4O[C@]43[C@@]21C [compound 8, 7-deacetyl-7-pentanoylgedunin] | >12 | 4.2 µg/mL and 8 µM | > 95 |  |
| CC(=O)O[C@H]1[C@@H](OC(C)=O)[C@]2(C)[C@H](CC[C@@]3(C)[C@H](c4ccoc4)OC(=O)[C@H]4O[C@@]423)[C@@]2(C)C=CC(=O)C(C)(C)[C@H]12 [6α-acetoxygedunin] |  |  |  | IC50 [6]: 2.8 µM; toxicity to FM3A cells [4]: toxic |
| CC1(C)C(=O)C=C[C@]2(C)[C@H]3CC[C@@]4(C)[C@H](c5ccoc5)OC(=O)[C@H]5O[C@]54[C@]3(C)[C@@H](O)C[C@@H]12 [compound 3, 7-deacetyl-7-epi-gedunin] | >15 |  |  | IC50 [1, 7]: 3.4 µg/mL and 7.8 µM; IC50 (MRC-5 human fibroblasts; MRC5, 48 h): > 110 µM |
| CC1(C)C(=O)C=C[C@]2(C)[C@H]3CC[C@@]4(C)[C@H](c5ccoc5)OC(=O)[C@H]5O[C@]54[C@]3(C)[C@H](O)[C@H](OC(=O)c3ccccc3)[C@@H]12 [compound 14, 7-deacetyl-6α-benzoxygedunin] | >11 | 5.1 µg/mL and 10 µM | > 110 |  |
| CCCC(=O)O[C@H]1[C@@H](O)[C@]2(C)[C@H](CC[C@@]3(C)[C@H](c4ccoc4)OC(=O)[C@H]4O[C@@]423)[C@@]2(C)C=CC(=O)C(C)(C)[C@H]12 [compound 13, 7-deacetyl-6α-butanoyloxygedunin] | >15 | 3.7 µg/mL and 7.1 µM | > 100 |  |
| CCCCC(=O)O[C@H]1C[C@H]2C(C)(C)C(=O)C=C[C@]2(C)[C@H]2CC[C@@]3(C)[C@H](c4ccoc4)OC(=O)[C@H]4O[C@]43[C@]12C [compound 9, 7-deacetyl-7-pentanoyl-7-epi-gedunin] | >14 | 3.7 µg/mL and 7 µM | > 95 |  |
| CC(=O)O[C@H]1[C@@H](O)[C@]2(C)[C@H](CC[C@@]3(C)[C@H](c4ccoc4)OC(=O)[C@H]4O[C@@]423)[C@@]2(C)C=CC(=O)C(C)(C)[C@H]12 [6α-acetoxy-7-deacetylgedunin, reference compound] |  |  |  | IC50 [6]: 4 µM |
| CC1(C)C(=O)C=C[C@]2(C)[C@H]3CC[C@@]4(C)[C@H](c5ccoc5)OC(=O)[C@H]5O[C@]54[C@]3(C)[C@H](O)C[C@@H]12 [compound 2, 7-deacetylgedunin] | >8.5 |  |  | IC50 [1, 7]: 5.9 µg/mL; IC50 ([1]; read-out: P. falciparum IC50 (CI95), K1 strain, 48 h, CI95 in brackets): 13 µM; IC50 (MRC-5 human fibroblasts; MRC5, 48 h): > 110 µM; IC50 ([3]; variety of strains (3D7, D6, D10, W2, INDO), ref several previous reports (numbers not shown), read-out: IC50, in vitro growth): 1.3 to 5.9 µM; IC50 (P. falciparum K1 strain): 3.1 µM; stability at low pH [5]: react at low pH |
| CCCC(=O)O[C@@H]1C[C@H]2C(C)(C)C(=O)C=C[C@]2(C)[C@H]2CC[C@@]3(C)[C@H](c4ccoc4)OC(=O)[C@H]4O[C@]43[C@@]21C [compound 6, 7-deacetyl-7-butanoylgedunin] | >21 |  |  | IC50 [1, 7]: 2.4 µg/mL and 4.7 µM; IC50 (MRC-5 human fibroblasts; MRC5, 48 h): > 98 µM |
| CC1(C)[C@H](O)CC[C@]2(C)[C@H]3CC[C@@]4(C)[C@H](c5ccoc5)OC(=O)[C@H]5O[C@]54[C@]3(C)[C@@H](O)C[C@@H]12 [compound 16, 7-deacetyl-3-deoxo-1,2-dihydro-3α-hydroxy-7-epi-gedunin] | >3.2 | 16 µg/mL | > 110 |  |
| CCN(CC)CCCC(C)Nc1ccnc2cc(Cl)ccc12 (stereo not shown) [chloroquine diphosphate, reference compound] |  |  |  | IC50 ([1]; Plasmodium falciparum, K1, 48 h, read-out: P. falciparum IC50 (CI95)): 0.18 µg/mL and 350 nM |
| CC1(C)C(=O)C=C[C@]2(C)[C@H]3CC[C@@]4(C)[C@H](c5ccoc5)OC(=O)[C@H]5O[C@]54[C@]3(C)[C@H](O)[C@H](O)[C@@H]12 [compound 10, 7-deacetyl-6α-hydroxygedunin] | >16 | 2.8 µg/mL and 6.1 µM | > 100 | IC50 (P. falciparum K1 strain): 5 µM |
| CC(=O)O[C@@H]1[C@H](O)[C@H]2C(C)(C)C(=O)C=C[C@]2(C)[C@H]2CC[C@@]3(C)[C@H](c4ccoc4)OC(=O)[C@H]4O[C@]43[C@]12C [compound 11, 6α-hydroxygedunin] | >26 | 2.2 µg/mL and 4.4 µM | > 110 | IC50 [6]: 90 µM |
| CC(=O)O[C@H]1C[C@H]2C(C)(C)C(=O)C=C[C@]2(C)[C@H]2CC[C@@]3(C)[C@H](c4ccoc4)OC(=O)[C@H]4O[C@]43[C@]12C [compound 5, 7-epi-gedunin] | >45 | 1.1 µg/mL and 2.3 µM | > 100 |  |
| CCCCCCC(=O)O[C@H]1[C@@H](O)[C@]2(C)[C@H](CC[C@@]3(C)[C@H](c4ccoc4)OC(=O)[C@H]4O[C@@]423)[C@@]2(C)C=CC(=O)C(C)(C)[C@H]12 [compound 15, 7-deacetyl-6α-heptanoyloxygedunin] | >9.4 | 5.4 µg/mL and 9.4 µM | > 88 |  |
